For this assay, the target named is RIPK2 (Homo sapiens (Human), UniProt O43353). Nature of the assay: RIPK2 inhibition, ADP-Glo Kinase Assay. Type of assay: biochemical. As to conditions: 8His-RIPK2 FL enzyme 8 nM, ATP 5 μM, 15 minutes pre-incubation, 60 minutes at 37° C., luminescence. The method, then: RIPK2 inhibition for compounds in Table 1 are shown in Table 3 and measured using the following method:
Materials: White, 384-well optiplates (cat.no. 6007290) were purchased from PerkinElmer. The V9103X ADP-Glo Kinase Assay Custom (including ultra-pure ATP) was purchased from Promega. 8His-RIPK2 FL was prepared in-house. All other materials were of highest grade commercially available.
Method: In a 384-well plate, test compound diluted in assay buffer (1% DMSO final) is mixed with 8His-RIPK2 FL enzyme (final concentration of 8 nM). After 15 minutes of pre-incubation at RT, ATP dissolved in assay buffer is added (final concentration 5 μM). The mixture is incubated for 60 minutes at 37° C. in a humidified incubator. Then, ADP Glo Reagent is added, followed by a 40 minute incubation at rt. Finally, Kinase Detection Reagent is added and the entire mixture is incubated for 40 min at RT. The luminescence signal is measured with an Envision reader to determine the amount of ADP produced. Assay buffer: 25 mM HEPES (4-(2-hydroxyethyl)-1-piperazinethanesulfonic acid), 0.1% BSA (bovine serum albumin), 10 mM MgCl2, 5 mM MnCl2, 50 mM KCl, 0.01% CHAPS (3-[(3-cholamidopropyl)dimethylammonio]-1-propanesulfonate), 10 μM Na3VO4, 1 mM DTT (dithiothreitol), pH 7.5 All plates contain wells with vehicle controls instead of compound (1% DMSO) as reference for the high signal (100% CTL (100% of control), high signal), and wells without enzyme as reference for low signal (0% CTL, low signal). The luminescent signal generated is proportional to the ADP produced and is correlated with enzyme activity. The analysis of the data is performed by the calculation of the percentage of ADP production in the presence of the test compound and RIPK2 as compared to the ADP production in the presence of RIPK2 plus 50 μM Gefitinib. (RLU (relative luminescence units) (sample)−RLU(low control))*100/(RLU(high value)−RLU(low control)) [RLU=relative luminescence units].

Sequence of RIPK2 (O43353 whole entry): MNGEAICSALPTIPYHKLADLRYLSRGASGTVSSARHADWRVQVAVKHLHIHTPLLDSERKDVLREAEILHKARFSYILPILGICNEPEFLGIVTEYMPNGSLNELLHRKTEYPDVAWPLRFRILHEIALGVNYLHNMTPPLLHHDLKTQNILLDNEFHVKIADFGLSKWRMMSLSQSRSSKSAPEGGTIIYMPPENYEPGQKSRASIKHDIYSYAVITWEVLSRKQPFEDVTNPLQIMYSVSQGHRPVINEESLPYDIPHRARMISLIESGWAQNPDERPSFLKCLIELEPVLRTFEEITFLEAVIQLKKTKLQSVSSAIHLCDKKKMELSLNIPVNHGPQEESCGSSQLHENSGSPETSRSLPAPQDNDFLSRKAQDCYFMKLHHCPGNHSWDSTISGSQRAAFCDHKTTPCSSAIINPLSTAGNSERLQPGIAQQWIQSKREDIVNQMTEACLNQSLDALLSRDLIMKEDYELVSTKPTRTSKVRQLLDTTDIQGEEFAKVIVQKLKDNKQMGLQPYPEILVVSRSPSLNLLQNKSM

In the case of `Cc1ccc(C(=O)NC2CC2)cc1-c1cnn(-c2cncc(NCCN3CCOC3=O)c2)c1` [Example 58, N-cyclopropyl-4-methyl-3-[1-(5-{[2-(2-oxo-1,3-oxazolidin-3-yl)ethyl]amino}pyridin-3-yl)-1H-pyrazol-4-yl]benzamide], it took 3.8 nM to reach half-maximal inhibition (IC50).

As for `Cc1ccc(C(=O)NC2CC2)cc1-c1cnn(-c2cncc(OCc3ccccc3)c2)c1` [Example 80, 3-{1-[5-(benzyloxy)pyridin-3-yl]-1H-pyrazol-4-yl}-N-cyclopropyl-4-methylbenzamide], the IC50 – broadly, the concentration at which inhibition is half-maximal – came to 26 nM.

For the compound `Cc1cc(F)c(C(=O)NC2CC2)cc1-c1cnn(-c2cncc(NC3CCN(CCF)CC3)c2)c1` [Example 174, N-Cyclopropyl-2-fluoro-5-(1-{5-[1-(2-fluoro-ethyl)-piperidin-4-ylamino]-pyridin-3-yl}-1H-pyrazol-4-yl)-4-methyl-benzamide], the IC50 is 1.5 nM.

Regarding `COc1cncc(-n2cc(-c3cc(C(=O)NC4CC4)ccc3C)cn2)c1` [Example 28, N-cyclopropyl-3-[1-(5-methoxy-pyridin-3-yl)-1H-pyrazol-4-yl]-4-methylbenzamide], 15 nM corresponded to half-maximal inhibition (IC50).

As for `Cc1ccc(C(=O)NC2CC2)cc1-c1cnn(-c2cncc(OC[C@H]3CCCO3)c2)c1` [Example 150, N-cyclopropyl-4-methyl-3-(1-{5-[(2R)-oxolan-2-ylmethoxy]pyridin-3-yl}-1H-pyrazol-4-yl) benzamide], the IC50 came out at 7 nM.

`CC(=O)N1CCC(Nc2cncc(-n3cc(-c4cc(C(=O)NC5CC5)ccc4C)cn3)c2)CC1` [Example 63, 3-(1-{5-[(1-acetylpiperidin-4-yl)amino]pyridin-3-yl}-1H-pyrazol-4-yl)-N-cyclopropyl-4-methyl-benzamide] showed an IC50 of 1.9 nM.

In turn, `Cc1ccc(C(=O)NC2CC2)cc1-c1cnn(-c2cncc(NC3CCN(C4CCOC4C)CC3)c2)c1` (stereo not shown) [Example 159, N-cyclopropyl-4-methyl-3-[1-(5-{[1-(2-methyloxolan-3-yl)piperidin-4-yl]amino}pyridin-3-yl)-1H-pyrazol-4-yl]benzamide] registered an IC50 of 1.8 nM. This IC50 and that of the compound before are within 1.5-fold of each other.

`Cc1ccc(C(=O)NC2CC2)cc1-c1cnn(-c2cncc(C(=O)N(C)C)c2)c1` [Example 49, 5-{4-[5-(cyclopropylcarbamoyl)-2-methylphenyl]-1H-pyrazol-1-yl}-N,N-dimethylpyridine-3-carboxamide]: the IC50 is 390 nM.

The compound `COCCNc1cncc(-n2cc(-c3cc(C(=O)NC4CC4)ccc3C)cn2)c1` [Example 60, N-cyclopropyl-3-(1-{5-[(2-methoxyethyl)amino]pyridin-3-yl}-1H-pyrazol-4-yl)-4-methylbenzamide] yielded an IC50 of 8.4 nM.

The compound `Cc1ccc(C(=O)NC2CC2)cc1-c1cnn(-c2cncc(C(F)(F)F)c2)c1` [Example 47, N-cyclopropyl-4-methyl-3-{1-[5-(trifluoromethyl)pyridin-3-yl]-1H-pyrazol-4-yl}benzamide] showed an IC50 of 57 nM.

Compound `Cc1ccc(C(=O)NC2CC2)cc1-c1cnn(-c2cncc(CC#N)c2)c1` [Example 52, 3-{1-[5-(cyanomethyl)pyridin-3-yl]-1H-pyrazol-4-yl}-N-cyclopropyl-4-methylbenzamide] had an IC50 of 56 nM.

For `Cc1ccc(C(=O)NC2CC2)cc1-c1cnn(-c2cncc(C3(O)CCOCC3)c2)c1` [Example 137, N-cyclopropyl-3-{1-[5-(4-hydroxy-oxan-4-yl)pyridin-3-yl]-1H-pyrazol-4-yl}-4-methylbenzamide], the IC50 came out at 120 nM.

In the case of `Cc1ccc(C(=O)NC2CC2)cc1-c1cnn(-c2cncc(N)c2)c1` [Example 106, 3-[1-(5-aminopyridin-3-yl)-1H-pyrazol-4-yl]-N-cyclopropyl-4-methylbenzamide], the IC50 came out at 7 nM.

Consider `Cc1cc(F)c(C(=O)NC2CC2)cc1-c1cnn(-c2cncc(NC3CCN(C)CC3)c2)c1` [Example 77, N-cyclopropyl-2-fluoro-4-methyl-5-(1-{5-[(1-methylpiperidin-4-yl)amino]pyridin-3-yl}-1H-pyrazol-4-yl) benzamide], for which the IC50 worked out at 1.1 nM.

Take `Cc1ccc(C(=O)NC2CC2)cc1-c1cnn(-c2cncc(NC3CCN(CC4C5COCC54)CC3)c2)c1` (stereo not shown) [Example 167, N-cyclopropyl-4-methyl-3-(1-{5-[(1-{3-oxabicyclo[3.1.0]hexan-6-ylmethyl}piperidin-4-yl)amino]pyridin-3-yl}-1H-pyrazol-4-yl) benzamide]: 1 nM corresponded to half-maximal inhibition (IC50). This IC50 and that of the compound before are within 1.5-fold of each other.

The compound `Cc1ccc(C(=O)NC2CC2)cc1-c1cnn(-c2cncc(OC(C)C)c2)c1` [Example 81, N-cyclopropyl-4-methyl-3-{1-[5-(propan-2-yloxy)pyridin-3-yl]-1H-pyrazol-4-yl}benzamide] displayed an IC50 of 5.4 nM. Against the preceding compound, the IC50 is about 5.4-fold higher.

Turning to `Cc1ccc(C(=O)NC2CC2)cc1-c1cnn(-c2cncc(NC3CCN(C(C)CO)CC3)c2)c1` (stereo not shown) [Example 157, N-cyclopropyl-3-[1-(5-{[1-(1-hydroxypropan-2-yl)piperidin-4-yl]amino}pyridin-3-yl)-1H-pyrazol-4-yl]-4-methylbenzamide], the IC50 was determined as 1.9 nM.

For the compound `Cc1ccc(C(=O)NC2CC2)cc1-c1cnn(-c2cncc(NC3CCN(C4CCOC(C)C4)CC3)c2)c1` (stereo not shown) [Example 165, N-cyclopropyl-4-methyl-3-[1-(5-{[1-(2-methyloxan-4-yl)piperidin-4-yl]amino}pyridin-3-yl)-1H-pyrazol-4-yl]benzamide], the midpoint of inhibition, the IC50, lay at 1.2 nM.

Consider `COc1cncc(-n2cc(-c3cc(C(=O)NC4CC4)c(F)cc3Cl)cn2)c1` [Example 26, 4-chloro-N-cyclopropyl-2-fluoro-5-[1-(5-methoxypyridin-3-yl)-1H-pyrazol-4-yl]benzamide], for which the IC50 is 8.9 nM.

On to `O=C(NC1CC1)c1ccc(Cl)c(-c2cnn(-c3cccnc3)c2)c1` [Example 31, 4-chloro-N-cyclopropyl-3-[1-(pyridin-3-yl)-1H-pyrazol-4-yl]benzamide], for which the IC50 amounted to 94 nM.

Take `O=C(NC1CC1)c1cc(-c2cnn(-c3cccnc3)c2)c(Cl)cc1F` [Example 32, 4-chloro-N-cyclopropyl-2-fluoro-5-[1-(pyridin-3-yl)-1H-pyrazol-4-yl] benzamide]: 14 nM corresponded to half-maximal inhibition (IC50).

`Cc1ccc(C(=O)NC2CC2)cc1-c1cnn(-c2cncc(CO)c2)c1` [Example 43, N-cyclopropyl-3-{1-[5-(hydroxymethyl)pyridin-3-yl]-1H-pyrazol-4-yl}-4-methylbenzamide] came in with an IC50 of 24 nM.

The compound `Cc1ccc(C(=O)NC2CC2)cc1-c1cnn(-c2cncc(NC(=O)NC3CCC3)c2)c1` [Example 109, 3-(1-{5-[(cyclobutylcarbamoyl)amino]pyridin-3-yl}-1H-pyrazol-4-yl)-N-cyclopropyl-4-methylbenzamide] returned an IC50 of 3.6 nM.

In turn, `Cc1ccc(C(=O)NC2CC2)cc1-c1cn(-c2cncc(N(C)C)c2)cn1` [Example 72, N-cyclopropyl-3-{1-[5-(dimethyl-amino)pyridin-3-yl]-1H-imidazol-4-yl}-4-methylbenzamide] yielded an IC50 of 3.9 nM.

Compound `COc1cncc(-n2cc(-c3cc(C(=O)NC4CC4)ccc3Cl)cn2)c1` [Example 27, 4-chloro-N-cyclopropyl-3-[1-(5-methoxypyridin-3-yl)-1H-pyrazol-4-yl]benzamide] yielded an IC50 of 22 nM.

`CCOc1cncc(-n2cc(-c3cc(C(=O)NC4CC4)ccc3C)cn2)c1` [Example 36, N-cyclopropyl-3-[1-(5-ethoxypyridin-3-yl)-1H-pyrazol-4-yl]-4-methyl-benzamide] returned an IC50 of 8.8 nM.

In turn, `Cc1ccc(C(=O)NC2CC2)cc1-c1cn(-c2cncc(NC3CCN(C4COC4)CC3)c2)cn1` [Example 79, N-cyclopropyl-4-methyl-3-[1-(5-{[1-(oxetan-3-yl)piperidin-4-yl]amino}pyridin-3-yl)-1H-imidazol-4-yl] benzamide] gave an IC50 of 1.4 nM. This IC50 lies about 6.3-fold lower than the previous one.

With `Cc1ccc(C(=O)NC2CC2)cc1-c1cnn(-c2cncc(NC(=O)CC(C)C)c2)c1` [Example 114, N-cyclopropyl-4-methyl-3-{1-[5-(3-methylbutanamido)pyridin-3-yl]-1H-pyrazol-4-yl}benzamide], half-maximal inhibition (IC50) was put at 2.7 nM.

On to `Cc1ccc(C(=O)NC2CC2)cc1-c1cnn(-c2cncc(C(=O)O)c2)c1` [Example 48, 5-{4-[5-(cyclopropylcarbamoyl)-2-methylphenyl]-1H-pyrazol-1-yl} pyridine-3-carboxylic acid], for which 33 nM corresponded to half-maximal inhibition (IC50).

`CC(=O)N1CCC(N2CCC(Nc3cncc(-n4cc(-c5cc(C(=O)NC6CC6)ccc5C)cn4)c3)CC2)CC1` [Example 158, 3-[1-(5-{[1-(1-acetylpiperidin-4-yl)piperidin-4-yl]amino}pyridin-3-yl)-1H-pyrazol-4-yl]-N-cyclopropyl-4-methylbenzamide] registered an IC50 of 1.2 nM.

The compound `Cc1ccc(C(=O)NC2CC2)cc1-c1cnn(-c2cncc(OCC3CC3)c2)c1` [Example 146, N-cyclopropyl-3-{1-[5-(cyclopropylmethoxy)pyridin-3-yl]-1H-pyrazol-4-yl}-4-methyl-benzamide] displayed an IC50 of 6.1 nM.

Values taken from patent US10138222B2, “Substituted benzamides as RIPK2 inhibitors” (Boehringer Ingelheim International GmbH, priority 2016, dated 2018).
